# Source: patent US20150141460A1, “Anti-inflammatory Compositions” (Cambridge Enterprise Limited, priority 2007, published 2015)
# Legend:
# [1] = tested on: LPS-induced TNF-α production; assay: Sub-lethal LPS-induced endotoxemia in mice, serum TNF-α by ELISA; format: in vivo; settings: mice; doses above 1 μg/mouse; subcutaneous or oral route
# Description: FIGS. 5A-5E show representative dose response curves for the inhibition of LPS induced TNF-α production in vivo in a murine model of sub-lethal endotoxemia. In each experiment, groups of six mice received pre-treatment with the five compounds (FIG. 5A: (II); FIG. 5B: (III); FIG. 5C: (V); FIG. 5D: (I′) and FIG. 5E: (IV)) at various doses, via either the oral route (circles) or subcutaneous route (triangles). 30-60 mins later, animals were challenged with LPS via the intraperitoneal route, and serum was prepared from a terminal bleed 3 hours later. The level of TNF-α in the blood was measured by ELISA, and the degree of inhibition of LPS-induced TNF-α production (calculated as the concentration of TNF-α in mice exposed to LPS minus the concentration of TNF-α in mice which received a sham exposure to endotoxin-free PBS) is shown on the Y-axis of each graph as the mean of six animals, with whiskers representing SEMs. The concentration of TNF-α in mice receiving LPS but no BSCI treatment was typically 5,000 to 6,000 pg/ml on average (compared to <10 pg/ml in unchallenged mice). The ED50 was estimated by linear interpolation of the presented graphs. The X-axis of each graph represents the dose of each compound administered to each mouse in the group in units of mg (1E-07 to 1).
# In this assay, mice are given a non-specific pro-inflammatory challenge using bacterial endotoxin (LPS), and the extent of the systemic inflammatory response (measured by serum levels of the central pro-inflammatory cytokine TNF-α, which is essentially absent from the blood under normal conditions, but is rapidly elevated in response to a wide range of inflammatory stimuli). We have selected this model even though it is not, itself, a particularly close model of any human inflammatory disease condition, but because TNF-α is known to be important in very many diseases (including rheumatoid arthritis, autoimmune disorders, Crohn's Disease, atherosclerosis, asthma and many more). Consequently, agents which suppress TNF-α production are already used clinically (e.g. Enbrel™ and other anti-TNF-α antibody products) to treat a wide range of such diseases.
# Mice (in groups of 6) were pretreated with various doses of each compound, either by the subcutaneous route 30 mins prior to LPS challenge, or by the oral route (via gavage) 60 mins prior to LPS. The mice were then challenged with an intraperitoneal injection of 750 μg of bacterial LPS and sacrificed 3 hours later. Serum was prepared from a terminal bleed by cardiac puncture, and the concentration of TNF-α is determined by ELISA (R&D Systems). In each experiment, a group of 6 mice receive no LPS to act as a negative control, and a second group receive only LPS (with no candidate inhibitor). […]
# [2] = tested on: chemokine-induced migration; assay: BSCI potency: inhibition of chemokine-induced migration in vitro (general statements); format: cell-based
# [3] = tested on: leukocytes in BAL fluid; assay: Ovalbumin-induced lung inflammation model of asthma, cell counts in BAL fluid; format: in vivo, Brown Norway rats; settings: 0.3 mg/kg daily by oral gavage day 8 to 21; p<0.01
# Source text: Bars represent mean cell counts, shown on the Y axis in units of 10^6 cells, for groups of […] with whiskers representing SEM; * p<0.01 versus ‘sensitised’ using Student's unpaired t-test assuming equal variance, with two tails). The horizontal line represents the average number of leukocytes present in BAL fluid from the lungs of unchallenged rats. All rats in the remaining three groups received the same sensitisation and challenge regimen, but were either treated with vehicle only (‘Sensitised’), or with compound (I′) at 0.3 mg/kg bodyweight or with monteleukast (‘Singulair™’) at 30 mg/kg bodyweight, all administered daily by oral gavage.
# Adult Brown Norway rats (200-300 g body weight; n=10 per group) were sensitised by a single intraperitoneal injection of 0.1 mg Ovalbumin on day 0. Each rat then received an intratracheal challenge with a solution of 1% ovalbumin (w/v) on day 8, and with 2% ovalbumin (w/v) on days 15, 18 and 21. The animals were then sacrificed 3 hours after the final challenge on day 21. […]
# On sacrifice, total lung leukocyate recruitment was assessed by performing a broncheoalveolar lavage (BAL) using 4 lots of 3 ml sterile phosphate-buffered saline introduced through a tracheal cannula. For each animal, the BAL washes were combined, and the total cell population counted (using a haemocytometer). […]
smiles,measurement,setting,value
"CC(C)(C)C(=O)N[C@H]1CCCNC1=O [Compound (I′), (S)-3-(2′,2′-dimethylpropanoylamino)-tetrahydropyridin-2-one]",suppression of LPS-induced TNF-α levels,[1],more than 90%
same,"potency as a BSCI, fold more potent than the (R)-enantiomer",[2],5-25 fold
same,reduction of the number of leukocytes in the BAL washes,[3],70%
